Blank lines part the entries; values can stand above or below the molecule they belong to. Non-standard residues stand in square brackets, D forms with d. Residues, ends and D or L forms follow the SMILES beside them.
Assays:
[1] = method code SF-HPLC, from DOI: 10.1002/etc.5620170216
[2] = method code SF, from DOI: 10.1016/s0378-5173(97)00352-9
[3] = method code SF, from Blakemore, C.; Brown, H.; Durant, J.; Emmett, C.; Ganellin, R.; Parsons, E.; Rasmussen, C. (1980). SK&F 92994: a new histamine H2-receptor antagonist. COMMUNICATIONS: Part II. Br. J. Pharmacol., …; details: pH 8.5
[4] = method code SF-AS, from DOI: 10.1002/chin.197711219; details: pH 7.4
[5] = method code SF-RC, from DOI: 10.1002/jlcr.3310, PMID: 26094722; details: pH 7.4
[6] = method code SF-GR, from DOI: 10.1016/s0022-3565(25)32611-x, PMID: 7230009
[7] = method code SF, from DOI: 10.1074/jbc.m009093200, PMID: 11092892; details: pH 7.4
[8] = method code G-RC, from DOI: 10.1016/0300-483x(85)90031-9, PMID: 4049435
[9] = method code SF-AS, from DOI: 10.1007/bf02857814, PMID: 1608986
[10] = method code SF-RC, from DOI: 10.1021/jm300199g, PMID: 22540974; details: pH 7.4
[11] = not given; remark: listed apart in the source
[12] = method code SF-RC, from DOI: 10.1023/a:1015825912542, PMID: 1808606; details: pH 7.2
[13] = method code SF-AS, from DOI: 10.1016/0147-6513(87)90041-8, PMID: 3830021
[14] = method code SF-RC, from DOI: 10.1016/j.nucmedbio.2007.03.011, PMID: 17591556; details: pH 8.9
[15] = method code SF-AS, from DOI: 10.1016/j.ejmech.2015.02.036, PMID: 25728022; details: pH 7.4
[16] = not given; remark: listed apart in the source
[17] = method code SF-HPLC, from DOI: 10.1002/jps.2600840622; details: pH 7.0
[18] = method code SF-HPLC, from DOI: 10.1023/a:1016462801968, PMID: 3334410
[19] = method code SF-HPLC, from DOI: 10.1002/jps.2600830510, PMID: 8071813
[20] = method code SF-AS, from DOI: 10.1016/0006-2952(93)90503-o, PMID: 8373444; details: pH 7.4
[21] = method code pH-metric titration, from DOI: 10.1002/(sici)1096-9063(199607)47:3<265::aid-ps416>3.0.co;2-f
[22] = method code SF-HPLC, from DOI: 10.1208/s12249-013-0046-y, PMID: 24297599; details: pH 4.0
[23] = method code SF-AS, from DOI: 10.1016/j.ejmech.2010.07.027, PMID: 20705371
[24] = not given; remark: listed apart in the source
[25] = not given; remark: listed apart in the source
[26] = not given; remark: listed apart in the source
[27] = method code SF-RC, from DOI: 10.1111/j.2042-7158.1976.tb04141.x, PMID: 6703
[28] = not given; remark: listed apart in the source
[29] = method code G-HPLC, from DOI: 10.1016/s0045-6535(97)00024-6
[30] = method code SF-HPLC, from Bhosale, A.; Agrawal, G.; Mishra, P. (2004). Preparation and characterization of mutual prodrugs of ibuprofen. Indian Journal of Pharmaceutical Sciences, 66, 158-163.; details: pH 1.2
[31] = not given; remark: listed apart in the source
[32] = method code SF-RC, from PMID: 2883979; details: pH 10.0
[33] = method code SF-HPLC, from DOI: 10.1023/a:1007546905874, PMID: 11205732; details: pH 7.4
[34] = method code SF-HPLC, from PMID: 4074422; details: pH 7.0
[35] = from Xu, W.; Sun, J.; Zhang, T.; Ma, B.; Chen, D.; He, Z. (2007). Determination of equilibrium solubility of oridonin and its apparent oil-water partition coefficient by HPLC. Journal of Shenyang …
[36] = method code SF-RC, from DOI: 10.1002/jlcr.3404, PMID: 27126914; details: pH 7.4
[37] = not given; remark: listed apart in the source
[38] = method code SF-RC, from DOI: 10.1021/jm050166g.s001, PMID: 16162001; details: pH 7.4
[39] = method code SF-AS, from DOI: 10.1016/j.bmcl.2014.05.029, PMID: 24930836
[40] = method code SF, from PMID: 21667; details: pH 10.1

SMILES: c1ccc2c3c(ccc2c1)-c1cccc2cccc-3c12
- logP: 6.04

SMILES: c1ccc2cc3c(cc2c1)-c1cccc2cccc-3c12
- logP [1]: 6.11

- logP [2]: 5.76
SMILES: C/C(=C(/OCCOc1ccc(Cl)cc1)c1ccc(Cl)cc1Cl)n1ccnc1

- logD [3]: 2.11
SMILES: Cc1[nH]cnc1CSCCNc1nc(=O)c(Cc2ccc3c(c2)OCO3)c[nH]1

- logD [4]: 2.01
SMILES: O=C1C(=C2C=CN(CCN3CCOCC3)C=C2)C(=O)c2ccccc21

- logD [5]: 2.54
SMILES: CC(C)(C)n1ncc(OCc2cccc(Cn3cc(CCF)nn3)c2)c(Cl)c1=O

SMILES: CC1C2CCC3C(O)C2(CC(O)C2(O)C1CC(O)C2(C)C)CC3(C)O (stereo unspecified)
- logP [6]: 1.51

- logD [7]: 2.49
SMILES: COC1=C(OC)C(=O)C(CCCCCCCCCCBr)=C(C)C1=O

- logP [8]: 5.55
SMILES: c1ccc2c(c1)ccc1[nH]c3ccc4ccccc4c3c12

- logP [9]: 0.39
SMILES: CCn1cc(C(=O)NC(CCCNC(=N)N)C(=O)OC)c(=O)c2ccc(C)nc21 (stereo unspecified)

- logD [10]: 2.02
SMILES: CC(C)[C@H](C(=O)NO)N(Cc1ccccc1)S(=O)(=O)c1ccc(OCCF)cc1

- logP [11]: 3.6
SMILES: O=C(CN1C(=O)c2ccccc2C1=O)N1CCN(Cc2ccc(I)cc2)CC1

- logD [12]: 1.19
SMILES: CC(=O)N[C@H](Cc1ccccc1)C(=O)N[C@H](Cc1ccccc1)C(N)=O (Ac-[dF]-[dF]-NH2)

- logP [13]: 4.1
SMILES: COC(=O)CCN(CCC(=O)OC)c1ccc(/N=N/c2c(Cl)cc([N+](=O)[O-])cc2Br)cc1

SMILES: CN(C(=O)CF)c1cccc(-c2ccnc3c(C(=O)c4cccs4)cnn23)c1
- logD [14]: 1.4

- logD [15]: 1.59
SMILES: C=CCn1c(C)nc2cc(Nc3nc(N4CCOCC4)nc4[nH]cnc34)ccc21

- logP [16]: 1.3
SMILES: COc1cc2c(N)nc(N3CCN(C(=O)OCC(C)(C)O)CC3)nc2c(OC)c1OC

- logD [17]: 1.05
SMILES: CCCN1CCN(c2cc3c(cc2F)c(=O)c(C(=O)O)cn3CC)CC1

- logP [18]: 1.71
SMILES: CC(C)(C)C(=O)OCC(COC(=O)C(C)(C)C)OCn1cnc2c(=O)[nH]c(N)nc21

- logP [19]: 2.81
SMILES: O=C(OCCCN1CCOCC1)c1ccccc1Nc1c(Cl)cccc1Cl

SMILES: O=C1OC(c2ccc(O)c(S(=O)(=O)O)c2)(c2ccc(O)c(S(=O)(=O)O)c2)c2c(Br)c(Br)c(Br)c(Br)c21
- logD [20]: -0.55

SMILES: CCO/N=C(\CC)C1=C(O)CC(c2c(C)cc(C)cc2C)CC1=O (stereo unspecified)
- logP [21]: 4.46

- logD [22]: 1.26
SMILES: CC[C@@]1(O)C(=O)OCc2c1cc1n(c2=O)Cc2cc3c(N)cccc3nc2-1

- logP [23]: 2.03
SMILES: CC(C)(C)c1cc(CN2CCOCC2)c(O)c(CN2CCOCC2)c1

SMILES: CC(=O)C1=C(O)C2C3c4c[nH]c5cccc(c45)CC3C(C)(C)N2C1=O (stereo unspecified)
- logP [24]: 3.83

- logP [25]: 6.06
SMILES: c1ccc2c(c1)-c1cccc3c1c-2cc1ccccc13

- logP [26]: 2.16
SMILES: O=C(O)c1[nH]c2cc(Cl)cc(Cl)c2c1CN1CC(=O)N(c2cccc(OCCF)c2)C1=O

- logP [27]: 3.3
SMILES: O=C(CCCN1CCN(c2ccccn2)CC1)c1ccc(F)cc1

- logP [28]: 3.27
SMILES: CCCN(C(C)C)C1COc2cccc(C(=O)NC(C)C)c2C1 (stereo unspecified)

- logP [29]: 5.66
SMILES: c1ccc2nc3c4ccccc4c4ccccc4c3cc2c1

- logD [30]: 1.54
SMILES: CC(C)Cc1ccc(C(C)C(=O)Oc2ccccc2C(N)=O)cc1 (stereo unspecified)

- logP [31]: 3.8
SMILES: CC[C@H]1C[C@]2(C)[C@@H](O)CC[C@H]2[C@@H]2CCc3cc(O)ccc3[C@@H]12

SMILES: CN1CCC(N(Cc2ccccc2)c2ccccc2)CC1
- logD [32]: 2.6

- logD [33]: 3.36
SMILES: O=C1OC(c2ccc(O)cc2)(c2ccc(O)cc2)c2ccccc21

- logD [34]: 2.76
SMILES: O=C1CCc2cc(OCCCCc3nnnn3C3CCCCC3)ccc2N1

- logP [35]: 1.66
SMILES: C=C1C(=O)[C@]23C(O)C1CC[C@H]2[C@@]12CO[C@]3(O)C(O)[C@@H]1C(C)(C)CCC2O (stereo partly specified)

- logD [36]: 3.18
SMILES: Cn1cc(C2=C(c3coc4ccccc34)C(=O)NC2=O)c2cc(I)ccc21

- logP [37]: 4.3
SMILES: O=C1OC2(c3ccc(O)cc3Oc3cc(O)ccc32)c2ccccc21

- logD [38]: 2.95
SMILES: CNc1ccc(C=Cc2ccc(OCC(CO)CF)cc2)cc1 (stereo unspecified)

- logP [39]: 0.65
SMILES: Cc1cc(=O)oc2cc(OCC(O)Cn3cncn3)cc(OCC(O)Cn3cncn3)c12 (stereo unspecified)

- logD [40]: 1.6
SMILES: COc1ccccc1N1CCN(CCCNc2cc(=O)n(C)c(=O)n2C)CC1
